Results published in ChEMBL document CHEMBL1201862, “PubChem BioAssay data set” (2004).
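Grown in 96-well plates, cells were treated for 48 hours with each compound at five concentrations. Insufficient inhibition: endpoint recorded as highest concentration tested. Here, GI50 denotes the concentration required for 50% inhibition of growth.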 Calls of active or inactive are those of the source. Rule as the data show it: active = GI50 up to about 1.1 µM and inactive = higher.

How the values were obtained:
Assay in all cases: inhibition of tumour cell growth, NCI panel, 48 h
786-0 = system: 786-0
A498 = system: A498
A549 = system: A549
ACHN = system: ACHN
BT-549 = system: BT-549
CAKI-1 = system: CAKI-1
CCRF-CEM = system: CCRF-CEM
COLO 205 = system: COLO 205
DU-145 = system: DU-145
EKVX = system: EKVX
HCC 2998 = system: HCC 2998
HCT-116 = system: HCT-116
HCT-15 = system: HCT-15
HL-60 = system: HL-60
HOP-62 = system: HOP-62
HOP-92 = system: HOP-92
HT-29 = system: HT-29
Hs-578T = system: Hs-578T
IGROV-1 = system: IGROV-1
K562 = system: K562
KM12 = system: KM12
LOX IMVI = system: LOX IMVI
M14 = system: M14
MCF7 = system: MCF7
MDA-MB-231 = system: MDA-MB-231
MDA-MB-435 = system: MDA-MB-435
MDA-N = system: MDA-N
MOLT-4 = system: MOLT-4
Malme-3M = system: Malme-3M
NCI-H226 = system: NCI-H226
NCI-H23 = system: NCI-H23
NCI-H460 = system: NCI-H460
NCI-H522 = system: NCI-H522
NCI/ADR-RES = system: NCI/ADR-RES
OVCAR-3 = system: OVCAR-3
OVCAR-4 = system: OVCAR-4
OVCAR-5 = system: OVCAR-5
OVCAR-8 = system: OVCAR-8
PC-3 = system: PC-3
RPMI-8226 = system: RPMI-8226
RXF 393 = system: RXF 393
SF-268 = system: SF-268
SF-295 = system: SF-295
SF-539 = system: SF-539
SK-MEL-28 = system: SK-MEL-28
SK-MEL-2 = system: SK-MEL-2
SK-MEL-5 = system: SK-MEL-5
SK-OV-3 = system: SK-OV-3
SN12C = system: SN12C
SNB-19 = system: SNB-19
SR = system: SR
SW-620 = system: SW-620
T47D = system: T47D
TK-10 = system: TK-10
U-251 = system: U-251
UACC-257 = system: UACC-257
UACC-62 = system: UACC-62
UO-31 = system: UO-31

Structure (SMILES): O=C1NCN(c2ccccc2)C12CCN(CCCN1CCN(CCOC(c3ccc(F)cc3)c3ccc(F)cc3)CC1)CC2
- GI50 (786-0): 1.63 µM (inactive)
- GI50 (A498): 1.84 µM (inactive)
- GI50 (A549): 2.03 µM (inactive)
- GI50 (ACHN): 1.99 µM (inactive)
- GI50 (BT-549): 2.64 µM (inactive)
- GI50 (CAKI-1): 2.12 µM (inactive)
- GI50 (CCRF-CEM): 3.31 µM (inactive)
- GI50 (COLO 205): 1.52 µM (inactive)
- GI50 (DU-145): 1.73 µM (inactive)
- GI50 (EKVX): 2.88 µM (inactive)
- GI50 (HCC 2998): 1.51 µM (inactive)
- GI50 (HCT-116): 1.7 µM (inactive)
- GI50 (HCT-15): 2.23 µM
- GI50 (HL-60): 1.48 µM (inactive)
- GI50 (HOP-62): 1.95 µM (inactive)
- GI50 (HOP-92): 1.64 µM (inactive)
- GI50 (HT-29): 1.26 µM (inactive)
- GI50 (Hs-578T): 2.06 µM (inactive)
- GI50 (IGROV-1): 1.98 µM (inactive)
- GI50 (K562): 0.91 µM (active)
- GI50 (KM12): 2.43 µM (inactive)
- GI50 (LOX IMVI): 1.86 µM (inactive)
- GI50 (M14): 1.88 µM (inactive)
- GI50 (MCF7): 1.92 µM (inactive)
- GI50 (MDA-MB-231): 2.15 µM (inactive)
- GI50 (MDA-MB-435): 1.76 µM (inactive)
- GI50 (MDA-N): 1.82 µM (inactive)
- GI50 (MOLT-4): 3.15 µM (inactive)
- GI50 (Malme-3M): 1.37 µM (inactive)
- GI50 (NCI-H226): 1.86 µM (inactive)
- GI50 (NCI-H23): 3.51 µM (inactive)
- GI50 (NCI-H460): 2 µM (inactive)
- GI50 (NCI-H522): 1.9 µM (inactive)
- GI50 (NCI/ADR-RES): 11 µM (inactive)
- GI50 (OVCAR-3): 2.03 µM (inactive)
- GI50 (OVCAR-4): 2.92 µM (inactive)
- GI50 (OVCAR-5): 3.15 µM (inactive)
- GI50 (OVCAR-8): 2.15 µM (inactive)
- GI50 (PC-3): 3.05 µM (inactive)
- GI50 (RPMI-8226): 2.04 µM (inactive)
- GI50 (RXF 393): 1.04 µM (active)
- GI50 (SF-268): 1.87 µM (inactive)
- GI50 (SF-295): 1.83 µM (inactive)
- GI50 (SF-539): 1.71 µM (inactive)
- GI50 (SK-MEL-28): 2.47 µM (inactive)
- GI50 (SK-MEL-2): 1.96 µM (inactive)
- GI50 (SK-MEL-5): 1.69 µM (inactive)
- GI50 (SK-OV-3): 2.22 µM (inactive)
- GI50 (SN12C): 1.96 µM (inactive)
- GI50 (SNB-19): 2.72 µM (inactive)
- GI50 (SR): 2.36 µM (inactive)
- GI50 (SW-620): 2.61 µM (inactive)
- GI50 (T47D): 1.58 µM (inactive)
- GI50 (TK-10): 1.75 µM (inactive)
- GI50 (U-251): 1.92 µM (inactive)
- GI50 (UACC-257): 1.85 µM (inactive)
- GI50 (UACC-62): 2.05 µM (inactive)
- GI50 (UO-31): 1.74 µM (inactive)

Structure (SMILES): COC(=O)c1c(O)ccc2c1c1c(n2Cc2cccc(C)c2)C(=O)c2ccccc2C1=O
- GI50 (786-0): 11.9 µM (inactive)
- GI50 (A498): 17.7 µM (inactive)
- GI50 (A549): 6.97 µM (inactive)
- GI50 (ACHN): 11.2 µM (inactive)
- GI50 (BT-549): 15 µM (inactive)
- GI50 (CAKI-1): 11.8 µM (inactive)
- GI50 (CCRF-CEM): 4.86 µM (inactive)
- GI50 (COLO 205): 1.67 µM (inactive)
- GI50 (DU-145): 14.4 µM (inactive)
- GI50 (EKVX): 19.5 µM (inactive)
- GI50 (HCC 2998): 2.7 µM (inactive)
- GI50 (HCT-116): 6.97 µM (inactive)
- GI50 (HCT-15): 8.05 µM
- GI50 (HL-60): 16.6 µM (inactive)
- GI50 (HOP-62): 16.1 µM (inactive)
- GI50 (HOP-92): 6.61 µM (inactive)
- GI50 (HT-29): 4.07 µM (inactive)
- GI50 (Hs-578T): 12.4 µM (inactive)
- GI50 (IGROV-1): 11.4 µM (inactive)
- GI50 (K562): 8.91 µM (inactive)
- GI50 (KM12): 11 µM (inactive)
- GI50 (LOX IMVI): 11.7 µM (inactive)
- GI50 (M14): 15 µM (inactive)
- GI50 (MCF7): 5.37 µM (inactive)
- GI50 (MDA-MB-231): 16.1 µM (inactive)
- GI50 (MDA-MB-435): 9.82 µM (inactive)
- GI50 (MDA-N): 13.1 µM (inactive)
- GI50 (MOLT-4): 4.24 µM (inactive)
- GI50 (Malme-3M): 16.7 µM (inactive)
- GI50 (NCI-H226): 17.4 µM (inactive)
- GI50 (NCI-H23): 11.4 µM (inactive)
- GI50 (NCI-H460): 4.29 µM (inactive)
- GI50 (NCI-H522): 11.5 µM (inactive)
- GI50 (NCI/ADR-RES): 9.42 µM (inactive)
- GI50 (OVCAR-3): 8.2 µM (inactive)
- GI50 (OVCAR-4): 6.46 µM (inactive)
- GI50 (OVCAR-5): 22.5 µM (inactive)
- GI50 (OVCAR-8): 7.31 µM (inactive)
- GI50 (PC-3): 11 µM (inactive)
- GI50 (RPMI-8226): 3.72 µM (inactive)
- GI50 (RXF 393): 10.7 µM (inactive)
- GI50 (SF-268): 12 µM (inactive)
- GI50 (SF-295): 13 µM (inactive)
- GI50 (SF-539): 14.8 µM (inactive)
- GI50 (SK-MEL-28): 15.3 µM (inactive)
- GI50 (SK-MEL-2): 12.6 µM (inactive)
- GI50 (SK-MEL-5): 13.1 µM (inactive)
- GI50 (SK-OV-3): 11.4 µM (inactive)
- GI50 (SN12C): 7.76 µM (inactive)
- GI50 (SNB-19): 14.1 µM (inactive)
- GI50 (SR): 4.98 µM (inactive)
- GI50 (SW-620): 14.2 µM (inactive)
- GI50 (T47D): 1.94 µM (inactive)
- GI50 (TK-10): 12 µM (inactive)
- GI50 (U-251): 11.6 µM (inactive)
- GI50 (UACC-257): 16.6 µM (inactive)
- GI50 (UO-31): 5.92 µM (inactive)
